From ChEMBL document CHEMBL1149403, “Design, synthesis, and anti-Helicobacter pylori activity of erythromycin A (E)-9-oxime ether derivatives” (2006)
Values after ≈ are worked out from the molar mass of the structure shown.

What follows are molecules tested on Helicobacter pylori (assay: Inhibitory activity against Helicobacter pylori NCTC-10638).
Type: functional

| Compound | MIC |
| --- | --- |
| CC[C@H]1OC(=O)[C@H](C)C(=O)[C@H](C)C(O[C@@H]2O[C@H](C)C[C@H](N(C)C)[C@@H]2O)[C@](C)(OC)C[C@@H](C)/C(=N\OCOc2ccccc2OC)[C@H](C)[C@@H](O)[C@]1(C)O (some centres not stated) | 0.04 µg/mL (≈ 0.0541 µM) |
| CC[C@H]1OC(=O)[C@H](C)C(O[C@H]2C[C@](C)(OC)[C@@H](O)[C@@H](C)O2)[C@H](C)C(O[C@@H]2O[C@H](C)C[C@H](N(C)C)[C@@H]2O)[C@](C)(O)C[C@@H](C)/C(=N\OCOc2ccccc2OC)[C@H](C)[C@@H](O)[C@]1(C)O (some centres not stated) | 0.03 µg/mL (≈ 0.0339 µM) |
| CC[C@H]1OC(=O)[C@H](C)C(=O)[C@H](C)C(O[C@@H]2O[C@H](C)C[C@H](N(C)C)[C@@H]2O)[C@](C)(OC)C[C@@H](C)/C(=N\OCOc2ccc(OC)cc2)[C@H](C)[C@@H](O)[C@]1(C)O (some centres not stated) | 0.02 µg/mL (≈ 0.0271 µM) |
| CC[C@H]1OC(=O)[C@H](C)C(O[C@H]2C[C@](C)(OC)[C@@H](O)[C@@H](C)O2)[C@H](C)C(O[C@@H]2O[C@H](C)C[C@H](N(C)C)[C@@H]2O)[C@](C)(OC)C[C@@H](C)/C(=N\OCOc2ccccc2OC)[C@H](C)[C@@H](O)[C@]1(C)O (some centres not stated) | 0.02 µg/mL (≈ 0.0222 µM) |
| CC[C@H]1OC(=O)[C@H](C)C(O[C@H]2C[C@](C)(OC)[C@@H](O)[C@@H](C)O2)[C@H](C)C(O[C@@H]2O[C@H](C)C[C@H](N(C)C)[C@@H]2O)[C@](C)(O)C[C@@H](C)/C(=N\OCOc2ccc(OC)cc2)[C@H](C)[C@@H](O)[C@]1(C)O (some centres not stated) | 0.02 µg/mL (≈ 0.0226 µM) |
| CC[C@H]1OC(=O)[C@H](C)C(O[C@H]2C[C@](C)(OC)[C@@H](O)[C@@H](C)O2)[C@H](C)C(O[C@@H]2O[C@H](C)C[C@H](N(C)C)[C@@H]2O)[C@](C)(OC)C[C@@H](C)/C(=N\OCOc2ccc(OC)cc2)[C@H](C)[C@@H](O)[C@]1(C)O (some centres not stated) | 0.03 µg/mL (≈ 0.0334 µM) |
| CC[C@H]1OC(=O)[C@H](C)[C@@H](O[C@H]2C[C@@](C)(OC)[C@@H](O)[C@H](C)O2)[C@H](C)[C@@H](O[C@@H]2O[C@H](C)C[C@H](N(C)C)[C@H]2O)[C@](C)(OC)C[C@@H](C)C(=O)[C@H](C)[C@@H](O)[C@]1(C)O [CLARITHROMYCIN] | 0.02 µg/mL (≈ 0.0267 µM) |
